Like-named read-outs stand apart in the source and are kept apart here.
Tests used:
[1] = biological target: intracellular GCN2 (phosphorylation of the GCN2 substrate eIF2α) (Homo sapiens (Human), UniProt Q9P2K8); test: GCN2 Cellular Inhibition Assay (AlphaScreen SureFire P-eIF2α Ser51, borrelidin-treated U2OS cells); assay type: cell-based; settings: 10 μM borrelidin, 1 h
How it was run: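 U2OS cells adhered overnight, then given compound (top 40 μM, 4-fold serial dilutions) plus 10 μM borrelidin for 1 h at 37 °C. Lysates assayed for eIF2α phospho-Ser51 by AlphaScreen SureFire; % inhibition versus borrelidin-only wells.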

GCN2 kinase = GCN2 kinase (Homo sapiens (Human), UniProt Q9P2K8); test: GCN2 Enzyme Inhibition Assay (Transcreener ADP2 fluorescence polarization); assay type: biochemical; settings: 280 μM ATP, 200 μM (RS)7 peptide, 4 nM GCN2, 25° C.; for Ki: Ki(app)
GCN2 kinase, sequence (Q9P2K8 whole entry): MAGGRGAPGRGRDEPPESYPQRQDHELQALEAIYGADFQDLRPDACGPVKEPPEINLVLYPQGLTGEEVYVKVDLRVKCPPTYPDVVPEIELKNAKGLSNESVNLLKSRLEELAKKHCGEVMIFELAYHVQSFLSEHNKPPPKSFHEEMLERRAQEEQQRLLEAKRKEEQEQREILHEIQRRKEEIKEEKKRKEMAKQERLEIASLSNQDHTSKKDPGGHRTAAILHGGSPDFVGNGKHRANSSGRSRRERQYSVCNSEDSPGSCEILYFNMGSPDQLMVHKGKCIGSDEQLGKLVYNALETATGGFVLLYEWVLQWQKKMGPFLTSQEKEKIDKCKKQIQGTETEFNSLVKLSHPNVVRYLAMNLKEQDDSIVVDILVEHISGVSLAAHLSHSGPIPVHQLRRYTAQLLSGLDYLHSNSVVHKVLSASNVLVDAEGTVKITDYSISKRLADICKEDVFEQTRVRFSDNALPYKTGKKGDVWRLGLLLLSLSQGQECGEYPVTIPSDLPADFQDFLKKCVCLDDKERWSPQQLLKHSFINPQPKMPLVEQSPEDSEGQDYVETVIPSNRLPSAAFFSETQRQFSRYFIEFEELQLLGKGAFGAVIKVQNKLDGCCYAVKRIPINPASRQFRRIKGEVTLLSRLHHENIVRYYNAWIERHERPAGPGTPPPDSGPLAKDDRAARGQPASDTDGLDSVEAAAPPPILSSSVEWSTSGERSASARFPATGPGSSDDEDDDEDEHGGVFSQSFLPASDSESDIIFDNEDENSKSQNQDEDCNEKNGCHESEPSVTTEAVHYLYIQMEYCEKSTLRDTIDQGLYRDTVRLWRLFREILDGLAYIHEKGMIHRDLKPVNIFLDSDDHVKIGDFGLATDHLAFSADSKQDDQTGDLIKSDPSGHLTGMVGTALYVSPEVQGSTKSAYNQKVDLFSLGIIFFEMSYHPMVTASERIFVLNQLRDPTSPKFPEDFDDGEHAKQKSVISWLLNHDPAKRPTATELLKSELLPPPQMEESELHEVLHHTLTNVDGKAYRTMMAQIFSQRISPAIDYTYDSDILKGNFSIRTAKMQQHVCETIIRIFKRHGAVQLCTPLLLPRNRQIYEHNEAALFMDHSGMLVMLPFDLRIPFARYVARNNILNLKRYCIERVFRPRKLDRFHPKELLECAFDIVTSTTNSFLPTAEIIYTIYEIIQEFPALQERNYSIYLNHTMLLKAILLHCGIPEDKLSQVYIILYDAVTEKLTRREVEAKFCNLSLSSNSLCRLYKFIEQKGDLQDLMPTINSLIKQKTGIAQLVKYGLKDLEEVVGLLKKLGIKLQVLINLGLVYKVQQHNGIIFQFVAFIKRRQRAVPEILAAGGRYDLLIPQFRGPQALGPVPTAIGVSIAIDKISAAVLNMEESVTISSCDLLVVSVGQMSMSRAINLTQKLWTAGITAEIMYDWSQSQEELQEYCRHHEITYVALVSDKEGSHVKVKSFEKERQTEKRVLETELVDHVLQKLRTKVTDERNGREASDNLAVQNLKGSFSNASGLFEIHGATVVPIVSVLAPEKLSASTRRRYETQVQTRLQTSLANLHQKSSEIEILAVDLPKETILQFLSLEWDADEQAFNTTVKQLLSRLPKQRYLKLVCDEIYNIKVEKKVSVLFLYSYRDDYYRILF
How it was run: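 Transcreener ADP2 fluorescence polarization detection of ADP from 4 nM GCN2 with (RS)7 substrate in 25 mM Tris-HCl pH 7.5, 50 mM NaCl, 10 mM MgCl2, 1 mM DTT. Compound pre-incubated with enzyme 10 min at 25 °C; reaction started by ATP, run 1 h at 25 °C. IC50 and Ki(app) by tight-binding fit.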

[2] = phosphorylated eIF2α Ser51, read-out: GCN2 Biomarker (IC50)

intracellular GCN2 (phosphorylation of the GCN2 substrate eIF2α), sequence (Q9P2K8 whole entry): as above

Row | Compound | IC50 [1, 2] | IC50 (GCN2 kinase) | Ki (GCN2 kinase) | IC50 ([1]; GCN2 Biomarker (IC50), phosphorylated eIF2α Ser51)
1 | C[C@H](NS(C)(=O)=O)[C@H]1CN(c2ccnc(-c3cnc4ccc(C(F)(F)F)cn34)n2)CCO1 (stereo in doubt) [I-405, N—((S)-1-((R)-4-(2-(6-(trifluoromethyl)imidazo[1,2-a]pyridin-3-yl)pyrimidin-4-yl)morpholin-2-yl)ethyl)methanesulfonamide] | 500 to 5000 nM | 10 to 100 nM |  | 
2 | NC(=O)C1CN(c2ccnc(-c3cnc4ccc(C(F)(F)F)cn34)n2)CC(F)(F)C1 (stereo not drawn) [I-202, 5,5-Difluoro-1-[2-(6-trifluoromethyl-imidazo[1,2-a]pyridin-3-yl)-pyrimidin-4-yl]-piperidine-3-carboxylic acid amide] | < 500 nM | < 10 nM | < 10 nM | 
3 | C[C@@H]1[C@@H](CNS(C)(=O)=O)N(C2CC2)[C@H](C)CN1c1ccnc(-c2cnc3ccc(C(F)(F)F)cn23)n1 (stereo in doubt) [I-493, N-(((2R,3R,6R)-1-cyclopropyl-3,6-dimethyl-4-(2-(6-(trifluoromethyl)imidazo[1,2-a]pyridin-3-yl)pyrimidin-4-yl)piperazin-2-yl)methyl)methanesulfonamide] | < 500 nM | 10 to 100 nM |  | 
4 | C[C@@H]1C[C@H](N=S(C)(C)=O)CN(c2ccnc(-c3cnc4ccc(OC(F)F)cn34)n2)C1 [I-291, dimethyl(((3 S,5R)-5-methyl-1-(2-(6-(difluoromethoxy)imidazo[1,2-a]pyridin-3-yl)pyrimidin-4-yl)piperidin-3-yl)imino)-λ6-sulfanone] | 500 to 5000 nM | 10 to 100 nM |  | 
5 | CS(=O)(=O)N1CC2(CCCN(c3ccnc(-c4cnc5ccc(C(F)(F)F)cn45)n3)C2)C1 [I-448, 2-(methylsulfonyl)-6-(2-(6-(trifluoromethyl)imidazo[1,2-a]pyridin-3-yl)pyrimidin-4-yl)-2,6-diazaspiro[3.5]nonane] | 500 to 5000 nM | 10 to 100 nM |  | 
6 | CC(=O)N1CCN(c2ccnc(-c3cnc4ccc(C(F)F)cn34)n2)CC1 [I-14, 1-[4-[2-[6-(Difluoromethyl)imidazo[1,2-a]pyridin-3-yl]pyrimidin-4-yl]piperazin-1-yl]ethanone] | 500 to 5000 nM |  | 10 to 100 nM | 
7 | CC(C)(C)OC(=O)N1CC2(C1)OCCN(c1ccnc(-c3cnc4ccc(C(F)(F)F)cn34)n1)C2(C)C [I-388, tert-butyl 9,9-dimethyl-8-(2-(6-(trifluoromethyl)imidazo[1,2-a]pyridin-3-yl)pyrimidin-4-yl)-5-oxa-2,8-diazaspiro[3.5]nonane-2-carboxylate] | > 5000 nM | 100 to 1000 nM |  | 
8 | FC(F)(F)c1ccc2ncc(-c3nccc(N4CCN(C[C@H]5CC56CCOCC6)[C@H](c5cn[nH]c5)C4)n3)n2c1 [I-523, 3-(4-((R)-4-(((S)-6-oxaspiro[2.5]octan-1-yl)methyl)-3-(1H-pyrazol-4-yl)piperazin-1-yl)pyrimidin-2-yl)-6-(trifluoromethyl)imidazo[1,2-a]pyridine] | < 500 nM | 10 to 100 nM |  | 
9 | FC(F)(F)c1ccc2ncc(-c3ccnc(N4CCN(C[C@H]5CCCOC5)[C@H](c5cn[nH]c5)C4)n3)n2c1 [I-545, 3-(2-((R)-3-(1H-pyrazol-4-yl)-4-(((R)-tetrahydro-2H-pyran-3-yl)methyl)piperazin-1-yl)pyrimidin-4-yl)-6-(trifluoromethyl)imidazo[1,2-a]pyridine] | < 500 nM | < 10 nM |  | 
10 | Cc1cc(-c2cnc3ccc(N4CC(F)(F)C4)cn23)nc(N2C[C@@H](C)C[C@H](c3cn[nH]c3)C2)n1 [I-287, 6-(3,3-difluoroazetidin-1-yl)-3-(6-methyl-2-((3 S, 5R)-3-methyl-5-(1H-pyrazol-4-yl)piperidin-1-yl)pyrimidin-4-yl)imidazo[1,2-a]pyridine] | < 500 nM | 10 to 100 nM |  | 
11 | FC(F)c1ccc2ncc(-c3ccnc(N4CCOC(c5cn[nH]c5)C4)n3)n2c1 (stereo not drawn) [I-18, 4-[4-[6-(Difluoromethyl)imidazo[1,2-a]pyridin-3-yl]pyrimidin-2-yl]-2-(1H-pyrazol-4-yl)morpholine] | < 500 nM |  | < 10 nM | 
12 | CS(=O)(=O)NC[C@@H]1CN(c2nc(-c3cnc4ccc(C(F)(F)F)cn34)ns2)CCO1 [I-106, (S)—N-((4-(3-(6-(trifluoromethyl)imidazo[1,2-a]pyridin-3-yl)-1,2,4-thiadiazol-5-yl)morpholin-2-yl)methyl)methanesulfonamide] | > 5000 nM |  | 10 to 100 nM | 
13 | Cc1noc([C@H]2CN(c3ccnc(-c4cnc5cc(F)c(Cl)cn45)n3)C[C@@H](C)O2)n1 (relative stereo) [I-56, 6-Chloro-7-fluoro-3-{4-[cis-2-methyl-6-(3-methyl-[1,2,4]oxadiazol-5-yl)-morpholin-4-yl]-pyrimidin-2-yl}-imidazo[1,2-a]pyridine] |  |  | 10 to 100 nM | 500 to 5000 nM
14 | CC1(F)CCCN(c2ccnc(-c3cnc4ccc(C(F)(F)F)cn34)n2)C1 (stereo not drawn) [I-226, 3-(4-(3-fluoro-3-methylpiperidin-1-yl)pyrimidin-2-yl)-6-(trifluoromethyl)imidazo[1,2-a]pyridine] | 500 to 5000 nM | 100 to 1000 nM |  | 
15 | C[C@@H](NS(C)(=O)=O)[C@@H]1CN(c2ccnc(-c3cnc4ccc(C(F)(F)F)cn34)n2)CCO1 (stereo in doubt) [I-404, N—((R)-1-((S)-4-(2-(6-(trifluoromethyl)imidazo[1,2-a]pyridin-3-yl)pyrimidin-4-yl)morpholin-2-yl)ethyl)methanesulfonamide] | 500 to 5000 nM | 10 to 100 nM |  | 

Further lines, with some results ahead:

Row | IC50 [1, 2] | IC50 (GCN2 kinase) | Ki (GCN2 kinase) | Compound | IC50 ([1]; GCN2 Biomarker (IC50), phosphorylated eIF2α Ser51)
16 | 500 to 5000 nM | < 10 nM |  | FC(F)(F)c1ccc2ncc(-c3nccc(N4CCN(Cc5ncc[nH]5)C(c5cn[nH]c5)C4)n3)n2c1 (stereo not drawn) [I-371, 3-(4-(4-((1H-imidazol-2-yl)methyl)-3-(1H-pyrazol-4-yl)piperazin-1-yl)pyrimidin-2-yl)-6-(trifluoromethyl)imidazo[1,2-a]pyridine] | 
17 | 500 to 5000 nM | 10 to 100 nM |  | Cc1n[nH]nc1[C@H]1C[C@@H](C)CN(c2ccnc(-c3cnc4ccc(C(F)(F)F)cn34)n2)C1 [I-408, 3-(4-((3R,5S)-3-methyl-5-(5-methyl-2H-1,2,3-triazol-4-yl)piperidin-1-yl)pyrimidin-2-yl)-6-(trifluoromethyl)imidazo[1,2-a]pyridine] | 
18 | < 500 nM | < 10 nM |  | FC(F)(F)c1ccc2ncc(-c3nccc(N4CCN(CC5CC5)C(c5cn[nH]c5)C4)n3)n2c1 (stereo not drawn) [I-369, 4-[4-(cyclopropylmethyl)-3-(1H-pyrazol-4-yl)piperazin-1-yl]-2-[6-(trifluoromethyl)imidazo[1,2-a]pyridin-3-yl]pyrimidine] | 
19 | < 500 nM |  | < 10 nM | FC(F)c1ccc2ncc(-c3nccc(N4CCOC(c5cn[nH]c5)C4)n3)n2c1 (stereo not drawn) [I-15, 4-[2-[6-(Difluoromethyl)imidazo[1,2-a]pyridin-3-yl]pyrimidin-4-yl]-2-(1H-pyrazol-4-yl)morpholine] | 
20 | 500 to 5000 nM |  | 10 to 100 nM | Clc1ccc2ncc(-c3nccc(N4CCCC(c5cnoc5)C4)n3)n2c1 (stereo not drawn) [I-65, 6-Chloro-3-[4-(3-isoxazol-4-yl-piperidin-1-yl)-pyrimidin-2-yl]-imidazo[1,2-a]pyridine] | 
21 | < 500 nM | < 10 nM |  | Cc1n[nH]cc1C1CC(O)CN(c2ccnc(-c3cnc4ccc(Cl)cn34)n2)C1 (stereo not drawn) [I-302, 1-(2-(6-chloroimidazo[1,2-a]pyridin-3-yl)pyrimidin-4-yl)-5-(3-methyl-1H-pyrazol-4-yl)piperidin-3-ol] | 
22 | < 500 nM | < 10 nM |  | OCC1CC(N2CCN(c3ccnc(-c4cnc5ccc(C(F)(F)F)cn45)n3)CC2c2cn[nH]c2)C1 (stereo not drawn) [I-390, (3-(2-(1H-pyrazol-4-yl)-4-(2-(6-(trifluoromethyl)imidazo[1,2-a]pyridin-3-yl)pyrimidin-4-yl)piperazin-1-yl)cyclobutyl)methanol] | 
23 | < 500 nM | 10 to 100 nM |  | FC(F)(F)c1ccc2ncc(-c3nccc(N4CCN(C5CC6(COC6)C5)[C@@H](c5cn[nH]c5)C4)n3)n2c1 [I-502, (S)-3-(4-(3-(1H-pyrazol-4-yl)-4-(2-oxaspiro[3.3]heptan-6-yl)piperazin-1-yl)pyrimidin-2-yl)-6-(trifluoromethyl)imidazo[1,2-a]pyridine] | 
24 | 500 to 5000 nM | 10 to 100 nM |  | CC(=O)N1C(C)CN(c2ccnc(-c3cnc4ccc(Cl)cn34)n2)CC1c1cn[nH]c1 (stereo not drawn) [I-277, 1-(4-(2-(6-chloroimidazo[1,2-a]pyridin-3-yl)pyrimidin-4-yl)-2-methyl-6-(1H-pyrazol-4-yl)piperazin-1-yl)ethan-1-one] | 
25 | < 500 nM | < 10 nM |  | Fc1cc2ncc(-c3nccc(N4CCCC(c5cn[nH]c5)C4)n3)n2cc1Br (stereo not drawn) [I-326, 3-(4-(3-(1H-pyrazol-4-yl)piperidin-1-yl)pyrimidin-2-yl)-6-bromo-7-fluoroimidazo[1,2-a]pyridine] | 
26 | < 500 nM | < 10 nM |  | CC1CN(c2ccnc(-c3cnc4ccc(Cl)cn34)n2)CC(c2cn[nH]c2)N1 (stereo not drawn) [I-266, 6-chloro-3-(4-(3-methyl-5-(1H-pyrazol-4-yl)piperazin-1-yl)pyrimidin-2-yl)imidazo[1,2-a]pyridine] | 
27 | < 500 nM | < 10 nM |  | Cc1[nH]ncc1[C@H]1CN(c2nccc(-c3cnc4ccc(Cl)cn34)n2)C[C@@H](C)O1 [I-180, (2R,6S)-4-(4-(6-chloroimidazo[1,2-a]pyridin-3-yl)pyrimidin-2-yl)-2-methyl-6-(5-methyl-1H-pyrazol-4-yl)morpholine] | 
28 | 500 to 5000 nM | 10 to 100 nM |  | C[C@@H]1C[C@H](N=S(C)(C)=O)CN(c2ccnc(-c3cnc4ccc(Br)cn34)n2)C1 [I-289, (((3 S,5R)-1-(2-(6-bromoimidazo[1,2-a]pyridin-3-yl)pyrimidin-4-yl)-5-methylpiperidin-3-yl)imino)dimethyl-λ6-sulfanone] | 
